# Where a name gives a salt, the structure may show the parent alone. Active and inactive are the calls of the source.
# How the values were obtained:
# [1] = biological target: Genome polyprotein (dengue virus type 2, UniProt P29990); test: flavivirus cap methylation enzyme inhibition – biochemical, confirmation dose response, primary screen (AID 588689); type: functional
# [2] = biological target: T1, Hepatocyte nuclear factor 4-alpha (Homo sapiens, UniProt P41235); type: functional, cell-based;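 also: biochemical luminescence-based dose-response counterscreen measuring inhibition of HNF4 dimerization, run alongside a screen for blockers of ABHD5–perilipin-5 interaction; split luciferase complementation of HNF4 fusion proteins in cell lysate measuring dimerization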
# T1 sequence (P41235 whole entry): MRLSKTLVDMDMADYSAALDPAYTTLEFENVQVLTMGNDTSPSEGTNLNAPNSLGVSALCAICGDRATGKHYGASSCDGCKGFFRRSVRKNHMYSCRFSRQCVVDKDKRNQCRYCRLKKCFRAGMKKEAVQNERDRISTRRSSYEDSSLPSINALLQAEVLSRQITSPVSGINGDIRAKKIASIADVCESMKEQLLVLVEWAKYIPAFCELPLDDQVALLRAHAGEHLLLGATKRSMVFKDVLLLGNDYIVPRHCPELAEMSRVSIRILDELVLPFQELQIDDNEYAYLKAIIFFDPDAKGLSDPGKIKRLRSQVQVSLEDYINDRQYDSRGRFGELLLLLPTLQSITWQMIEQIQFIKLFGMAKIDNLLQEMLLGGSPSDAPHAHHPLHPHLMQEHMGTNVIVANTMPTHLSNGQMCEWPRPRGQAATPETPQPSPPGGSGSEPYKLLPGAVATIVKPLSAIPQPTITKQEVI
# [3] = biological target: Nuclear receptor subfamily 5 group A member 2 (Homo sapiens, UniProt O00482); type: functional, cell-based;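 also: HEK293T cells transfected with LRH-1 and a StAR promoter luciferase reporter; potency for inhibitors that lower LRH-1 driven reporter light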
# [4] = biological target: Steroidogenic factor 1 (Homo sapiens, UniProt Q13285); test: Counterscreen for inverse agonists of the liver receptor homolog-1 (LRH-1; NR5A2): Luminescence-based cell-based high throughput dose response assay to identify inverse agonists of the Steroidogenic Factor 1 Nuclear Receptor (SF1; NR5A1).; type: functional
# [5] = nonselective StAR promoter luciferase inhibitors – cell-based, luminescence, luciferase reporter, counter-screen for LRH-1 inverse agonist project, dose response (AID 651969); type: functional
# [6] = biological target: T2, Sentrin-specific protease 8 (Homo sapiens, UniProt Q96LD8); test: inhibition of human SENP8 cleavage activity – biochemical, luminescence, SAR follow-up (AID 504501); type: functional
# T2 sequence (Q96LD8 whole entry): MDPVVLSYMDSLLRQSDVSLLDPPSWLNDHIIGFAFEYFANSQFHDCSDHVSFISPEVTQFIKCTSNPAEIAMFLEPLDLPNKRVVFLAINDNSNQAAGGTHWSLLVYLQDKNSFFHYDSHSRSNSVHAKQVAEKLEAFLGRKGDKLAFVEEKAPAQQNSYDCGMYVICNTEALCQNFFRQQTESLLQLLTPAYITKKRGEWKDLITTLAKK
# [7] = biological target: T3, Caspase-3 (Homo sapiens, UniProt P42574); test: SAR Analysis of small molecule inhibitors of Sentrin-specific proteases (SENPs) using a Caspase-3 Selectivity assay. [Related pubchem assays (depositor defined):AID2540, AID2599, AID434973, AID489001]; type: functional
# T3 sequence (P42574 whole entry): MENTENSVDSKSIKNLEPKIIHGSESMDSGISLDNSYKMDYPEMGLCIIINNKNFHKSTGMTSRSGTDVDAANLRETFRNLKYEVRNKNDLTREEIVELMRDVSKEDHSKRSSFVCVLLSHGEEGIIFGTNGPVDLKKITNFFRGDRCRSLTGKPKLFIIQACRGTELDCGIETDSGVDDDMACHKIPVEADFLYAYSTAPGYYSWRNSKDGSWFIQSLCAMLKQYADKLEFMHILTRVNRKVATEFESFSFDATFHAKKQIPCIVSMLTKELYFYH
# [8] = biological target: T4, Sentrin-specific protease 6 (Homo sapiens, UniProt Q9GZR1); test: SAR Analysis of small molecule inhibitors of Sentrin-specific protease 6 (SENP6) using a Luminescent assay. [Related pubchem assays (depositor defined):AID2582, AID2599]; type: functional
# T4 sequence (Q9GZR1 whole entry): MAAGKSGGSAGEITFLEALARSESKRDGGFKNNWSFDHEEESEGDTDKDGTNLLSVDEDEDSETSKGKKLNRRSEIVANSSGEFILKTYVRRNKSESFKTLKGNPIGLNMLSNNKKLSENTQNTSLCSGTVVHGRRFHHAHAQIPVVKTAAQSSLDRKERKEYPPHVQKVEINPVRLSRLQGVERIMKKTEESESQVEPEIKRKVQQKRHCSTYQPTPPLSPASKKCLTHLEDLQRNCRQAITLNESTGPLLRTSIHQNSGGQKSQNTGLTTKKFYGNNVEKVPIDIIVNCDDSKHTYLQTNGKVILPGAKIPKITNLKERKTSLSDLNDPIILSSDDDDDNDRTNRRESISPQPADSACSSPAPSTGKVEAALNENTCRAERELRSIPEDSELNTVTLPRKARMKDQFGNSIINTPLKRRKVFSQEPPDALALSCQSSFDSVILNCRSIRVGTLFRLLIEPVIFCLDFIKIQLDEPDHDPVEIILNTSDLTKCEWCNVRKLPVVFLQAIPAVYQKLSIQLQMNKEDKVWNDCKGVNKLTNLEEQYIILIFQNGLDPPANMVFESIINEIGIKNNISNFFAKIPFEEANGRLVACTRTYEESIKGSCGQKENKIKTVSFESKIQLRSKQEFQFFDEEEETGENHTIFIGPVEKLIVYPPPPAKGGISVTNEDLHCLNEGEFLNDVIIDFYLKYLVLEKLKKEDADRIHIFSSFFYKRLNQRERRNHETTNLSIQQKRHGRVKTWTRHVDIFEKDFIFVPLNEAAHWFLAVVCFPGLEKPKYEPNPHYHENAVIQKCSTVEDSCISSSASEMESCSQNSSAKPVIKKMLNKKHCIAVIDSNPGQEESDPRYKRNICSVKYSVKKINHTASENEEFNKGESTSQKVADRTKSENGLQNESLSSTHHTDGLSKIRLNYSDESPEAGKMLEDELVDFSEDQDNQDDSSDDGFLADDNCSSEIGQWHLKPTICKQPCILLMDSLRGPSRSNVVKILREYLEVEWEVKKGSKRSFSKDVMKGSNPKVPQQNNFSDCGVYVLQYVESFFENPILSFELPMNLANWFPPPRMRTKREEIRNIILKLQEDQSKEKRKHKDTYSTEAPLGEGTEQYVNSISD
# [9] = biological target: T5, Sentrin-specific protease 7 (Homo sapiens, UniProt Q9BQF6); test: inhibition of human SENP7 cleavage activity – biochemical, luminescence, SAR follow-up (AID 504497); type: functional
# T5 sequence (Q9BQF6 whole entry): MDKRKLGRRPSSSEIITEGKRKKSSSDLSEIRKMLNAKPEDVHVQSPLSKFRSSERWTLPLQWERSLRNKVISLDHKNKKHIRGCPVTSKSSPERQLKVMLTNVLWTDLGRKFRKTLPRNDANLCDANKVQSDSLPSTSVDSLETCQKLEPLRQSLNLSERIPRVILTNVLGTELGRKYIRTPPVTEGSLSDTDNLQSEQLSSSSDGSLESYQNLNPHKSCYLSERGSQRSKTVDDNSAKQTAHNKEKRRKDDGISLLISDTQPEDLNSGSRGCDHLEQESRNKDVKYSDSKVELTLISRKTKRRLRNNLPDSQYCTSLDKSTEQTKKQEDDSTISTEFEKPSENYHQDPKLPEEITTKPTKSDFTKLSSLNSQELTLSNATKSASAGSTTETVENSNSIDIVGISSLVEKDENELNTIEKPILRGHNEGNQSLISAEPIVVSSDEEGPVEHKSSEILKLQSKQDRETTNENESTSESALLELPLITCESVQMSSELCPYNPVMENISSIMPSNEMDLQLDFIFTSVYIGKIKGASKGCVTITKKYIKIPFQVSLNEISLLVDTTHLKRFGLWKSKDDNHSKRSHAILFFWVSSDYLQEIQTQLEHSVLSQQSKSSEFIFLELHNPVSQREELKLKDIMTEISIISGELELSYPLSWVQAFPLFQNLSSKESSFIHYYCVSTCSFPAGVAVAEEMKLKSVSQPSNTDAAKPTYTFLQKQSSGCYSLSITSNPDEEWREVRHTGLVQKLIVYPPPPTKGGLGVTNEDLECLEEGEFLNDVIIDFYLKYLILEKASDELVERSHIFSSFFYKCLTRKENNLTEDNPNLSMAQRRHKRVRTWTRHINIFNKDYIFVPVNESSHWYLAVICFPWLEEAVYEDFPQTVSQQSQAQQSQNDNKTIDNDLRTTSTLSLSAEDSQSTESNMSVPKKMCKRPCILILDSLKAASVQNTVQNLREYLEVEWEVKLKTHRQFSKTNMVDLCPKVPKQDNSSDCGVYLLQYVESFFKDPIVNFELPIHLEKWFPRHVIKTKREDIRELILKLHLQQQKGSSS
# [10] = biological target: T6, Probable nicotinate-nucleotide adenylyltransferase (Staphylococcus aureus (strain N315), UniProt P65502); type: functional, Staphylococcus aureus subsp. aureus N315;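 as to IC50 Mean: confirmatory dose-response retesting of NadD inhibitor hits first found in an ultra-high-throughput screen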
# [11] = biological target: T6, Probable nicotinate-nucleotide adenylyltransferase; type: functional, Staphylococcus aureus subsp. aureus N315; conditions: read-out: IC50_Mean
# [12] = biological target: Melanocortin receptor 4 (Homo sapiens, UniProt P32245); type: functional, cell-based;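 also: Cell-based assay with luminescence read-out, confirmatory dose-response testing for agonist activity of biased ligands at MC4R; human U2OS cells with tagged receptor and beta-arrestin; potency of agonists that increase receptor coupling to beta-arrestin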
# [13] = tested on: Streptococcus sp. 'group A'; test: Streptococcus pyogenes SK(-)GAS viability under kanamycin – luminescence, BacTiterGlo, confirmation, counter-screen for streptokinase expression inhibitor project, dose response (AID 1900); type: functional, organism-based
# [14] = biological target: T7, Streptokinase A (Streptococcus pyogenes serotype M1, UniProt P10520); test: viability-normalized secreted streptokinase activity reduction – plasminogen activation absorbance, OD405, dose response (AID 1914); type: functional, Streptococcus pyogenes M1 GAS;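 also: secreted streptokinase activity via plasminogen activation per viability signal from cell pellet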
# T7 sequence (P10520 whole entry): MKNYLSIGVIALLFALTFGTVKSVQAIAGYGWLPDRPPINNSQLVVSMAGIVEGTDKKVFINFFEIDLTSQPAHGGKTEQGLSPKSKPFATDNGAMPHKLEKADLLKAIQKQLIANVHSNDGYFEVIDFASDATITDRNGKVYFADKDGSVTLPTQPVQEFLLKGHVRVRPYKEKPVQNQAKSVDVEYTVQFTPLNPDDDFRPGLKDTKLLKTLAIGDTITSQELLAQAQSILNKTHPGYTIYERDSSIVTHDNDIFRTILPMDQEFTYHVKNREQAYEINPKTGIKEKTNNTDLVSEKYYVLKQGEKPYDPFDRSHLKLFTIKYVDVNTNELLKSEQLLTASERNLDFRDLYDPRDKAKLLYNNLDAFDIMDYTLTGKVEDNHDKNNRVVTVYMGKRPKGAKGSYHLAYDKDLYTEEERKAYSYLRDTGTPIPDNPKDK
# [15] = Trypanosoma cruzi growth suppression in host cells – NIH3T3 host cells, beta-gal luminescence, confirmation (AID 2044); type: functional, cell-based;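 also: intracellular parasites grown in NIH/3T3 mouse fibroblasts as host cells; luminescent beta-galactosidase reporter signal from transgenic T. cruzi replicating inside host cells; inhibitors lower the luminescence signal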
# [16] = NIH3T3 cell viability loss – ATP luminescence, mouse fibroblasts, counter-screen, dose response (AID 2010); type: functional, cell-based;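 also: cells exposed to compound for about 90 hours before reading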
# [17] = tested on: Streptococcus; test: GAS UMAA2166 growth inhibition – luminescence, BacTiterGlo, counter-screen for streptokinase expression inhibitor project, dose response (AID 1915); type: functional, organism-based;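 also: potency for reduction of bacterial viability or growth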
# Chain of Melanocortin receptor 4 (P32245 whole entry): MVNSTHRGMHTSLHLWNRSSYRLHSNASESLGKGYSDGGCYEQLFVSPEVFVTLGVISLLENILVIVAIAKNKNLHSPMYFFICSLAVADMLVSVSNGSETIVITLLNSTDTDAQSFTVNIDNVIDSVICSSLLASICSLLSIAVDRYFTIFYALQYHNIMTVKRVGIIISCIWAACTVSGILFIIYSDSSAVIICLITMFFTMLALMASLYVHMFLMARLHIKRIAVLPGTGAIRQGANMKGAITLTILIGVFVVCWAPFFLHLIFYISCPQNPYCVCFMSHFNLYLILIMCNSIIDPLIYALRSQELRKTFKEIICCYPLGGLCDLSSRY
# Chain of Steroidogenic factor 1 (Q13285 whole entry): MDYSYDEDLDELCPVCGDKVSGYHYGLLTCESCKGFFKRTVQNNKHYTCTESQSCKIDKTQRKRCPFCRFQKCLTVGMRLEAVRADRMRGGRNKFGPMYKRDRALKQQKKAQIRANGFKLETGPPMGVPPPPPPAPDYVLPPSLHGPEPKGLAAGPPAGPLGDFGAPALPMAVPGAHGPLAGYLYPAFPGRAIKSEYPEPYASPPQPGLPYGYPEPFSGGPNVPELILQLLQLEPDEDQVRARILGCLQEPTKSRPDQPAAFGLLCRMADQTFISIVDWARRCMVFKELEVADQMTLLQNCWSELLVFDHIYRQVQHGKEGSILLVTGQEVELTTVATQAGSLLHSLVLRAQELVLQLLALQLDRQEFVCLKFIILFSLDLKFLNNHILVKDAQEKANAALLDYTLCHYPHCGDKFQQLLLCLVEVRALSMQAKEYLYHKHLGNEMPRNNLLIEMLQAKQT
# Chain of Nuclear receptor subfamily 5 group A member 2 (O00482 whole entry): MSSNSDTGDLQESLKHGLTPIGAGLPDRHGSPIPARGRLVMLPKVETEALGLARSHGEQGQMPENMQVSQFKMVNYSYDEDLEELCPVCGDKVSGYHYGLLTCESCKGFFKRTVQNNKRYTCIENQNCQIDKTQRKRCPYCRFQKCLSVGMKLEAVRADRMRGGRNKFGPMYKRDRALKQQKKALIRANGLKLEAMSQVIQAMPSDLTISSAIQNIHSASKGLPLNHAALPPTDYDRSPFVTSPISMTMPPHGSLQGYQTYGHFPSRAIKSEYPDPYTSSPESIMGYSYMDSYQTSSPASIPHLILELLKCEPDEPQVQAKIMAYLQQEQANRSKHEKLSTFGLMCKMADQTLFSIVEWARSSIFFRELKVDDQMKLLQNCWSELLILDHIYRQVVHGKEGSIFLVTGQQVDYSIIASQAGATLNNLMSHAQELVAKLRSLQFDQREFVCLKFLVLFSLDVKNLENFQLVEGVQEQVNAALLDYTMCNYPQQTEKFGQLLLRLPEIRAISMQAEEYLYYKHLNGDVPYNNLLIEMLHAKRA
# T6 sequence (P65502 whole entry): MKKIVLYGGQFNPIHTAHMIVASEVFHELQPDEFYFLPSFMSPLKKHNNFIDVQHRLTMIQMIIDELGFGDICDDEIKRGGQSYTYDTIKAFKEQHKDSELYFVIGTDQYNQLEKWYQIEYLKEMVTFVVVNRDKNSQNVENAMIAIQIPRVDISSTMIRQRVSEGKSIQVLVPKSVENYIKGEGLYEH
# Chain of Genome polyprotein (P29990 2492-3391 limits assumed): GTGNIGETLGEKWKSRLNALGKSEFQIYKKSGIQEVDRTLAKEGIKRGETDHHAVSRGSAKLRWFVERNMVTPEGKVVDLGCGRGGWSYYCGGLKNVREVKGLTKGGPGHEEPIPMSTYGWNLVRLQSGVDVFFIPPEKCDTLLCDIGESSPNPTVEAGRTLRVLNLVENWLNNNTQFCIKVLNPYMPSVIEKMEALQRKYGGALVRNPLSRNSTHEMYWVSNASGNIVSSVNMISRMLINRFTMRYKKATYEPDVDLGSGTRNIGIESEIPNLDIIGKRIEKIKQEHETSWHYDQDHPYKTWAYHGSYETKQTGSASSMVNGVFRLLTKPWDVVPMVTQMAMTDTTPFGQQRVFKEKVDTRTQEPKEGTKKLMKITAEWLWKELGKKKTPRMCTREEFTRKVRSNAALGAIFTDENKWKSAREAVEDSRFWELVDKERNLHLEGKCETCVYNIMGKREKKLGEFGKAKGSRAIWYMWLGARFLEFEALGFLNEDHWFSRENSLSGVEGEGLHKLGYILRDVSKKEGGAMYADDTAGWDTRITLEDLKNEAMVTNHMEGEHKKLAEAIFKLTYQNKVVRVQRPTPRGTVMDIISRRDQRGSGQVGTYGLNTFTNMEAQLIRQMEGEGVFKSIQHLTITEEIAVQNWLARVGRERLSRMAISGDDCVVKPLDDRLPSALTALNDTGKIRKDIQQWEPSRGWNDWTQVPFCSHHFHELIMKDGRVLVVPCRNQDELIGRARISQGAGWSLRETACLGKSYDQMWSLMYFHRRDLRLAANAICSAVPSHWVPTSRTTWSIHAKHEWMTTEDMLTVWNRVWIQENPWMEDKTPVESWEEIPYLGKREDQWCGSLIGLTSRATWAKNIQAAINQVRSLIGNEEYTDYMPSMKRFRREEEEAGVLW
smiles,measurement,setting,value
O=C1NC(=O)N(c2ccccc2F)C(=O)/C1=C/c1ccc(Oc2ccc([N+](=O)[O-])cn2)cc1,IC50,[1],56.1 µM (active)
same,IC50,[2],1.88 µM (active)
Cc1ccc(C)c(NC(=O)CSc2nnc(-c3[nH]nc4ccccc34)o2)c1,IC50,[3],53.5 µM (inactive)
same,IC50,[4],5.07 µM (active)
same,IC50,[5],35.9 µM (inactive)
CCOc1ccc(CCNC(=O)CN2C(=O)NC3(CCc4ccccc43)C2=O)cc1OCC (configuration not stated),IC50,[3],16.7 µM (inactive)
same,IC50,[4],4.33 µM (active)
same,IC50,[5],35.9 µM (inactive)
Cc1ccc2nc(NC(=O)c3cc(=O)c4cc(C)c(C)cc4o3)sc2c1,IC50,[6],> 99 µM (inactive)
same,IC50,[7],> 99 µM (inactive)
same,IC50,[8],> 99 µM (inactive)
same,IC50,[9],> 99 µM (inactive)
Cc1ccc(-n2nc3c(c2NC(=O)c2ccc(Br)o2)CSC3)c(C)c1,IC50,[10],2.11 µM (active)
same,IC50,[11],8.03 µM (active)
CCOc1ccc(Cc2nnc(SCC(=O)Nc3ccc(C(C)=O)cc3)nc2O)cc1,IC50,[3],13.5 µM (inactive)
same,IC50,[4],5.1 µM (active)
same,IC50,[5],35.9 µM (inactive)
Cc1ccc(NC(=O)c2ncn(CCCN3CCN(Cc4cccc5ccccc45)CC3)n2)cc1C,EC50,[12],> 89.2 µM (inactive)
CC(C)CC(=O)Nc1ccc(-c2nc3cc(Cl)ccc3s2)cc1,IC50,[6],> 99 µM (inactive)
same,IC50,[7],> 99 µM (inactive)
same,IC50,[8],> 99 µM (inactive)
same,IC50,[9],82.7 µM (active)
Cc1cccnc1C(NC(=O)C1CCN(CCOc2ccc(Cl)cc2Cl)CC1)c1ccc(Cl)cc1 (configuration not stated),EC50,[12],> 89.2 µM (inactive)
NC(Cc1ccc(C(F)(F)F)cc1)c1csc(Nc2nccc(C(F)(F)F)n2)n1 (configuration not stated),EC50,[12],> 89.2 µM (inactive)
COc1ccc(CCNC(=O)CN2C(=O)NC3(CCCCC3)C2=O)cc1,IC50,[3],16.5 µM (inactive)
same,IC50,[4],1.74 µM (active)
same,IC50,[5],35.9 µM (inactive)
Fc1cc(F)cc(-c2noc(/C=C/c3ccccc3Cl)n2)c1,IC50,[6],> 99 µM (inactive)
same,IC50,[7],> 99 µM (inactive)
same,IC50,[8],> 99 µM (inactive)
same,IC50,[9],> 99 µM (inactive)
O=C(NC1CCCCC1)C(c1ccccc1F)n1c(=O)c(-c2ccco2)nc2ccccc21 (configuration not stated),IC50,[2],1.84 µM (active)
Nc1ccc(-c2noc(/C=C/c3ccccc3)n2)cc1[N+](=O)[O-],IC50,[6],> 99 µM (inactive)
same,IC50,[7],> 99 µM (inactive)
same,IC50,[8],> 99 µM (inactive)
same,IC50,[9],> 99 µM (inactive)
CN(C)CCOc1ccc(/C(=C(/CCCl)c2ccccc2)c2ccccc2)cc1 [TOREMIFENE CITRATE],EC50,[13],5.82 µM (active)
same,EC50,[14],25.9 µM (active)
same,EC50,[15],28.4 µM (active)
same,EC50,[16],> 60 µM (not active)
same,EC50,[17],8.17 µM (active)
same,IC50,[2],7.87 µM (active)
